Among the data in ChEMBL document CHEMBL1201862, “PubChem BioAssay data set” (2004) are AC50, EC50 and IC50 values, retold here.

In general, AC50 refers to the concentration at which the activity in the assay is half-maximal. As usually defined, the EC50 is the concentration that produces a half-maximal response.

A short description of assay [1]: blockers of bursicon-stimulated LGR2 cAMP reporter – cell-based, HEK293, CRE-luciferase reporter, cherry pick, set 2, dose response (AID 743343).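 Also: transfected cells were stimulated with diluted bursicon conditioned medium after compound addition.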 In kind it is functional. (A reporter such as luciferase makes a cellular process visible.)
In assay [2] the target is T1, Short transient receptor potential channel 4 (Mus musculus, UniProt Q9QUQ5).
T1 sequence (Q9QUQ5 whole entry): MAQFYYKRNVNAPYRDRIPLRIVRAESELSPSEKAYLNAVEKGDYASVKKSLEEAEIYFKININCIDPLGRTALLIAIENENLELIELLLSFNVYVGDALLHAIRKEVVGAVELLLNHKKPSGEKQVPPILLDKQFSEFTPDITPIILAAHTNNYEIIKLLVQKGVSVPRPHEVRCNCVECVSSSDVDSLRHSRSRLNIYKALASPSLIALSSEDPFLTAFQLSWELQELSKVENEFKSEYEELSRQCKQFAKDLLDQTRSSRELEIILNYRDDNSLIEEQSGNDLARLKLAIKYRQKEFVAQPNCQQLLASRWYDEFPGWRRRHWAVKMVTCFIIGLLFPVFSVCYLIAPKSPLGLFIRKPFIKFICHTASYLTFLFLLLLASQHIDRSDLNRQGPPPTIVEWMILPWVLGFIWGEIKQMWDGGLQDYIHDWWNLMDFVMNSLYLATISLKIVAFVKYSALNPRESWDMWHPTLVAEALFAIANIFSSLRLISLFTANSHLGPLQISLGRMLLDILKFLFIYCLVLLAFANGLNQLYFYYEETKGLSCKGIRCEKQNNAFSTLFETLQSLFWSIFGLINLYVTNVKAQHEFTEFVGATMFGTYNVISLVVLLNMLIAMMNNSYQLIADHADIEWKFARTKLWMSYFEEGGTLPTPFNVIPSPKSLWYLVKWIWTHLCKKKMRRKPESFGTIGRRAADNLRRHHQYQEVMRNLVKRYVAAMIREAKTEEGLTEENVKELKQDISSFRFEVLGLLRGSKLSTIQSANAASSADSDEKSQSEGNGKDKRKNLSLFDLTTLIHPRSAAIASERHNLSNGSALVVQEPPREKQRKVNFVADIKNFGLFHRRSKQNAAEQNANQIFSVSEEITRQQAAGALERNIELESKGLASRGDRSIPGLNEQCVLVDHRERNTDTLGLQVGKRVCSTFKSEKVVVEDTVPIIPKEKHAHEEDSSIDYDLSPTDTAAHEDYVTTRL
Kind of assay: block of DAMGO-driven TRPC4 calcium entry – cell-based, HEK293 TRPC4/mu-opioid, Fluo-4 calcium, dose response (AID 434942).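 Also: potency of inhibitors blocking the TRPC4 calcium response.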 Type of assay: functional.

The target of assay [3] is T2, Polyadenylate-binding protein 1 (Homo sapiens, UniProt P11940). Kind of assay: MLLE binding blockers, Cy5 peptide tracer – biochemical, fluorescence polarization, Cy5-PAM2 peptide, secondary, miRNA deadenylation inhibitor project, dose response (AID 602260). In kind it is functional. The conditions noted are these: read-out: IC50_Mean. For orientation: In fluorescence polarisation assays a small probe gives low polarisation when free and higher when bound to something large.

Assay [4] is described as follows: A549 cell cytotoxicity, dose response, cytotoxicity control, plate reader, cherry-pick, antagonist series (AID 743412). Type of assay: functional, cell-based.
Assay [5] can be described thus: reduced cellular PGC1a acetyl-lysine signal – cell-based, cherry-picked samples, dose response (AID 720514).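 Also: potency may reflect raised or lowered acetylation signal.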 In kind it is functional.
A short description of assay [6]: toxicity toward HepG2 liver cells – cell-based, plate reader, cherry-pick, antagonist series, cytotoxicity control, dose response (AID 743416). In kind it is functional.
The subject of another assay is CHO. Kind of assay: CHO cell viability loss, potency – luminescence, cytotoxicity control for TLR9-MyD88 binding inhibitor project, dose response (AID 588339).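 Also: CHO cells stably coexpressing TLR9 and MyD88 fusions from primary screen; compound exposure lasted 48 hours before viability readout.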 Type of assay: functional, cell-based, hamster. As to conditions: Cricetulus griseus.
In assay [7] the target is Heat shock protein HSP 90-alpha (Homo sapiens, UniProt P07900). In kind it is functional, organism-based.
The target of assay [8] is Bifunctional protein GlmU (Mycobacterium tuberculosis, UniProt P9WMN3). The experiment in a line: Inhibitors of Mycobacterial Glucosamine-1-phosphate acetyl transferase (GlmU). Secondary screen. Details: species or system Mycobacterium tuberculosis H37Rv.
Assay [9] can be described thus: Trypanosoma cruzi growth suppression in host cells – NIH3T3 host cells, beta-gal luminescence, confirmation (AID 2044).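 Also: intracellular parasites grown in NIH/3T3 mouse fibroblasts as host cells; luminescent beta-galactosidase reporter signal from transgenic T. cruzi replicating inside host cells; inhibitors lower the luminescence signal.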 Type of assay: functional, cell-based.
Assay [10] is described as follows: NIH3T3 cell viability loss – ATP luminescence, mouse fibroblasts, counter-screen, dose response (AID 2010).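 Also: cells exposed to compound for about 90 hours before reading.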 Type of assay: functional, cell-based. In general terms: The purpose of a counterscreen is to sort out artefacts and off-target activity.
Assay [11] in a line: non-specific 3'UTR reporter inhibition in Clone20-Shn3RL – cell-based, Renilla luciferase, cherry-picked, counter-screen for Shn3 inhibitor project, dose response (AID 624133). In kind it is functional.
Assay [12] is described as follows: reduction of Shn3 3'UTR-driven luciferase in osteoblasts – cell-based, Clone20 osteoblasts, firefly luciferase, cherry-picked, dose response (AID 624132).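 Also: firefly luciferase luminescence from reporter carrying the Shn3 3'UTR in osteoblasts.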 In kind it is functional.
Assay [13] concerns the target T2, Polyadenylate-binding protein 1. The experiment in a line: MLLE domain peptide-binding blockers, IC50 – biochemical, fluorescence polarization, FITC-PAM2 peptide, dose response (AID 602259). Type of assay: functional. The conditions noted are these: read-out: IC50_Mean.
A further assay addresses Beta Lactamase (Pseudomonas aeruginosa, UniProt Q932Y6). Kind of assay: BLA reporter interference, concentration series – BLA reporter cells, FRET fluorescence, artefact control for TLR9-MyD88 binding inhibitor project, dose response (AID 588341).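 Also: cell based assay in CHO-K1 cells stably expressing beta-lactamase.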 In kind it is cell-based.
A short description of assay [14]: viability loss in HEK293 cells – cell-based, plate reader, cherry-picked samples, cytotoxicity control, dose response (AID 743446). Type of assay: functional.
Assay [15] can be described thus: blockade of melanocortin 4 receptor signaling – cell-based, plate reader, cherry pick, counter-screen for LGR2 antagonist project, dose response (AID 743444).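 Also: transfected HEK 293 cells stimulated with alpha-MSH peptide; potency of inhibitors of the alpha-MSH evoked signal.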 Type of assay: functional.
Assay [16] is described as follows: loss of viability in HepG2 cells – cell-based, CellTiter-Glo, cherry-picked, cytotoxicity control for Shn3 inhibitor project, dose response (AID 624134). Type of assay: functional.
Assay [17] concerns the target T3, Replicative DNA helicase DnaB (Mycobacterium tuberculosis, UniProt P9WMR3).
T3 sequence (P9WMR3 whole entry): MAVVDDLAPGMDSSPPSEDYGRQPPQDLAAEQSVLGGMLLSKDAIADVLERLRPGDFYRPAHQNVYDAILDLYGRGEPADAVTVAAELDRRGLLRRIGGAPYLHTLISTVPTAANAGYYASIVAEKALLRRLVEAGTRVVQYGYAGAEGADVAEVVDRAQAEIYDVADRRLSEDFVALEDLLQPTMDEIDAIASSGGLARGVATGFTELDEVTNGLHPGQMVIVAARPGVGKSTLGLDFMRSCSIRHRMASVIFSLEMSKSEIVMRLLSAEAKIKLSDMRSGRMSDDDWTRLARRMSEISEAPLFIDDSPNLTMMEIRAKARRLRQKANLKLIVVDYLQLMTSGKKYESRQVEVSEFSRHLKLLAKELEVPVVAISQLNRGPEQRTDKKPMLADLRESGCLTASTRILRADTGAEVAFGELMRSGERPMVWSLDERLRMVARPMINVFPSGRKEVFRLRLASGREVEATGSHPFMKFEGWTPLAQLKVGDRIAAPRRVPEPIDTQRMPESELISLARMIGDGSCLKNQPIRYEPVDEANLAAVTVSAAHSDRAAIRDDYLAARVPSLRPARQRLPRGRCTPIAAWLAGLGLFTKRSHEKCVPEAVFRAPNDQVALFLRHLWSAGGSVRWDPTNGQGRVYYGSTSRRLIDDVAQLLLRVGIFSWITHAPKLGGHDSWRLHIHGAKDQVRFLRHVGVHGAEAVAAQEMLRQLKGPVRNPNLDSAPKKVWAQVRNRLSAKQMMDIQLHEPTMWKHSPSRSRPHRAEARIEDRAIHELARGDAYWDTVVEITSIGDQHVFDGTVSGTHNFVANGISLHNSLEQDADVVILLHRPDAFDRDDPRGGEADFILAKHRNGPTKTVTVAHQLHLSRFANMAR
The experiment in a line: DnaB intein splicing inhibitors, dose response, biochemical, cell-free fluorescence (AID 449749). In kind it is functional.

In another assay the target is T4, Protein RecA (Mycobacterium tuberculosis, UniProt P9WHJ3).
T4 sequence (P9WHJ3 whole entry): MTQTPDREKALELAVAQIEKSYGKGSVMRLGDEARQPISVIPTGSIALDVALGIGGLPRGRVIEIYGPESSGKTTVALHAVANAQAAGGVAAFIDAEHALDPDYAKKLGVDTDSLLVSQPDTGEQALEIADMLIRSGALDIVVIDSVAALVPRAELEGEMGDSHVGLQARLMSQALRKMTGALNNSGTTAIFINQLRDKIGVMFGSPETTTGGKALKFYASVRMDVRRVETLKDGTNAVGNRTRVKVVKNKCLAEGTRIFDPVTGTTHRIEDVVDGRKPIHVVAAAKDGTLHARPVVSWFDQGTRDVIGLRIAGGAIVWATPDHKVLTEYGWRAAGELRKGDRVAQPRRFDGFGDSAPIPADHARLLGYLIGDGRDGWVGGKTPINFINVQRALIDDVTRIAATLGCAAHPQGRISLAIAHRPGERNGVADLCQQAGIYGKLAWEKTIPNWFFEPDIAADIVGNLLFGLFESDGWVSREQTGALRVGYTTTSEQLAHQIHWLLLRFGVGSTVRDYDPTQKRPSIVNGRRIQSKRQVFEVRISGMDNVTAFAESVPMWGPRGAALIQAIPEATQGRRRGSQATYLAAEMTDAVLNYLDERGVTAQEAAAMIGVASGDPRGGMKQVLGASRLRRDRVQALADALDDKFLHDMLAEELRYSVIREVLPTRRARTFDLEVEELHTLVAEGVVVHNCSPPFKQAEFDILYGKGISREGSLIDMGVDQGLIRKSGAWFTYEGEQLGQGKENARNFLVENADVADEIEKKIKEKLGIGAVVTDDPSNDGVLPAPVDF
Kind of assay: Fluorescence Cell-Free Homogeneous Dose Retest to Identify Inhibitors of RecA-Intein Splicing Activity. [Related pubchem assays (depositor defined):AID2097, AID2223, AID489010, AID492950]. Type of assay: functional.

Assay [18] deals with 72 kDa type IV collagenase (Homo sapiens, UniProt P08253). Kind of assay: Dose Response validation of uHTS RPN11 inhibitor hits using a MMP-2 Fluorescence assay. Type of assay: functional.
Another assay has as its target T5, Streptokinase A (Streptococcus pyogenes serotype M1, UniProt P10520).
T5 sequence (P10520 whole entry): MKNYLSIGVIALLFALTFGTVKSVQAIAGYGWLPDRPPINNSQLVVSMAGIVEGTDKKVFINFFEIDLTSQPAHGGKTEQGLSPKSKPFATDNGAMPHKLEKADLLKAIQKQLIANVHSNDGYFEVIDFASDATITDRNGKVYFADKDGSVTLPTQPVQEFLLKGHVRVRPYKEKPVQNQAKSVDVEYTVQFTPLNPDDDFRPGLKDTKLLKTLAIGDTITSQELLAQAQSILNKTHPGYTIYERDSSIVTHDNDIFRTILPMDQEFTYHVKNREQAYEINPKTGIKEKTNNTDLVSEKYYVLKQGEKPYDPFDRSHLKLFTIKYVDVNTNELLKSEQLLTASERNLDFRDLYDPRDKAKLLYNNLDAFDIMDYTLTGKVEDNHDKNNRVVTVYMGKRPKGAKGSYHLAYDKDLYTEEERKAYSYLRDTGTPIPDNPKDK
Kind of assay: viability-normalized secreted streptokinase activity reduction – plasminogen activation absorbance, OD405, dose response (AID 1914).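 Also: secreted streptokinase activity via plasminogen activation per viability signal from cell pellet.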 In kind it is functional, Streptococcus pyogenes M1 GAS.

Another assay addresses Prothrombin (Bos taurus, UniProt P00735). Kind of assay: thrombin protease inhibitors – biochemical, fluorescence polarization, uHTS hits, dose response (AID 602369). Type of assay: functional.
Assay [19] concerns the target 26S proteasome non-ATPase regulatory subunit 14 (Homo sapiens, UniProt O00487). The experiment in a line: inhibition of proteasome subunit RPN11 – biochemical, fluorescence polarization, uHTS hits, confirmation (AID 602368). In kind it is functional.
The test system of another assay is Streptococcus. The experiment in a line: GAS UMAA2166 growth inhibition – luminescence, BacTiterGlo, counter-screen for streptokinase expression inhibitor project, dose response (AID 1915).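 Also: potency for reduction of bacterial viability or growth.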 Type of assay: functional, organism-based.
The test system of assay [20] is Streptococcus sp. 'group A'. Kind of assay: Streptococcus pyogenes SK(-)GAS viability under kanamycin – luminescence, BacTiterGlo, confirmation, counter-screen for streptokinase expression inhibitor project, dose response (AID 1900). Type of assay: functional, organism-based.

Activity calls are given as the source filed them.

T2 sequence (P11940 whole entry): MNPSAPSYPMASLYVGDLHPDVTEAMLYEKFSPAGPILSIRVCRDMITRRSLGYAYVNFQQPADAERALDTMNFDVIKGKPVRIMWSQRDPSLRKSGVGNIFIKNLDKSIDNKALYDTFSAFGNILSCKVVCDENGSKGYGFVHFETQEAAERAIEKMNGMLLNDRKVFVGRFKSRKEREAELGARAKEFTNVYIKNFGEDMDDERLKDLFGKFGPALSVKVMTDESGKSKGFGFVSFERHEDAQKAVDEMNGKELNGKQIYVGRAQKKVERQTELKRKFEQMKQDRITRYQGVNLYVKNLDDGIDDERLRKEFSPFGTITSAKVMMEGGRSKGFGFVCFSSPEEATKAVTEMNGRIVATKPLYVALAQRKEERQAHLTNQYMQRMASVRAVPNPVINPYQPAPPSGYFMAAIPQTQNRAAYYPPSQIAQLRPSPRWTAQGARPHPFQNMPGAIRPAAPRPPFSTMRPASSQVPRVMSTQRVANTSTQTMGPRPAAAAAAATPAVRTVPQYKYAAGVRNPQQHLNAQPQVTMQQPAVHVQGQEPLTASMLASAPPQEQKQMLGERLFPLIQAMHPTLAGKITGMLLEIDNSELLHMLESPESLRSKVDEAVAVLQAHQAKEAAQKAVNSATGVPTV
Sequence of 26S proteasome non-ATPase regulatory subunit 14 (O00487 whole entry): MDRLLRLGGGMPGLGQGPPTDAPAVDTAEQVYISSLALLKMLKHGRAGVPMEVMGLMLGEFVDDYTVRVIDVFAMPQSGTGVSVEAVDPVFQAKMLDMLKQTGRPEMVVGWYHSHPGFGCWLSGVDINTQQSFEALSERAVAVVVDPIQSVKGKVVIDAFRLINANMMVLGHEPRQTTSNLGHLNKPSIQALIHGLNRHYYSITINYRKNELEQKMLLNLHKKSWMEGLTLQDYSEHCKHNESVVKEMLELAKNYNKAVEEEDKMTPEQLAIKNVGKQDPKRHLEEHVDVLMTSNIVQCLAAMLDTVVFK
Sequence of 72 kDa type IV collagenase (P08253 whole entry): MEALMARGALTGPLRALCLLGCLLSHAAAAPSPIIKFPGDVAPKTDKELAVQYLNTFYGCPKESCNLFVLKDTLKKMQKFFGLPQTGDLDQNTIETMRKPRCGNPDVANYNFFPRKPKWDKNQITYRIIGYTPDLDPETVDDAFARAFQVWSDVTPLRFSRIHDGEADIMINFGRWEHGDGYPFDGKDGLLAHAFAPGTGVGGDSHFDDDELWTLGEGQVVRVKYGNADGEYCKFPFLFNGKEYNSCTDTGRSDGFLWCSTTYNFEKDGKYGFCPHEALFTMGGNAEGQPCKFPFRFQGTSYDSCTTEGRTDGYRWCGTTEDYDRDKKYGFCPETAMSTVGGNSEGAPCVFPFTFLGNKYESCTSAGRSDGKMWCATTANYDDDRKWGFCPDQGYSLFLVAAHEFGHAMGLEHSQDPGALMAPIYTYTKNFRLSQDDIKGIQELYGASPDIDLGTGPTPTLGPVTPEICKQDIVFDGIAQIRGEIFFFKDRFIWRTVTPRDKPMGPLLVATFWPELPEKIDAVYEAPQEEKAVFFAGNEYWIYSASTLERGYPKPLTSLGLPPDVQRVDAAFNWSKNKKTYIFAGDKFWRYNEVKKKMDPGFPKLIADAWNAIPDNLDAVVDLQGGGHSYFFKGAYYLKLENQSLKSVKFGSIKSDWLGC
Sequence of Bifunctional protein GlmU (P9WMN3 whole entry): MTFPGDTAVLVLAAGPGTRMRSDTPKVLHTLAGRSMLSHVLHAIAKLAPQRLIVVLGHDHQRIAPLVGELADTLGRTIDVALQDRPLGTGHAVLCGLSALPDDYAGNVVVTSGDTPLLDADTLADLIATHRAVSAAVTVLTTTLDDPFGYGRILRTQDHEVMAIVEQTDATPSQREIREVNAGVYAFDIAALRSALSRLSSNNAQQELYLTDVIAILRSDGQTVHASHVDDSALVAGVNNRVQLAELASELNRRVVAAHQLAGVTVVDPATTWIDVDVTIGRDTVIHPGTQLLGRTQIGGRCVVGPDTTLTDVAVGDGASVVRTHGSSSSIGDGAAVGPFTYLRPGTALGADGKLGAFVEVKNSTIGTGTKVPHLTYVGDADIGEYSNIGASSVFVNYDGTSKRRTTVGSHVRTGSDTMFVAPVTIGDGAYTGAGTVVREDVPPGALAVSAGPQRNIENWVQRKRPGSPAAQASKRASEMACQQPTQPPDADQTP
Sequence of Beta Lactamase (Q932Y6 whole entry): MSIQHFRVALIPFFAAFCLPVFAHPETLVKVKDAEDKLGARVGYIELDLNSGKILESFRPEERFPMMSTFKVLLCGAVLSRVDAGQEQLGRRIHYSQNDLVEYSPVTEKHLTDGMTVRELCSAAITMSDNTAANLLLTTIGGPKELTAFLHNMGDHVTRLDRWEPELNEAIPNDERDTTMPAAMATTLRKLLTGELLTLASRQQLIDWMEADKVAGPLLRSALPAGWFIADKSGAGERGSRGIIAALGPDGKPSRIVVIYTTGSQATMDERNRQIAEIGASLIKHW

Regarding `CCCNC(=O)c1nnsc1[S+]([O-])c1ccc(Cl)cc1` (configuration not stated), the AC50 in assay [1] is 1.85 µM (active); in assay [4], 4.44 µM (active); in [5], 12.8 µM (active); in assay [6] it was 7.07 µM (active); in assay [7], 2.2 µM (active); in assay [11] it was 6.98 µM (active). In addition, the AC50 in assay [12] is 1.26 µM (active); in [14], 16 µM (active); in assay [15] it was 2.29 µM (active); in [16], 29.7 µM (active); in assay [17], 33.8 µM (active). The EC50 in assay [2] is 7.5 µM (active); in [9], 0.886 µM (active); in [10], 2.21 µM (active); at Protein RecA, 24.4 µM (inconclusive). Also, the IC50 in assay [3] was > 66 µM (inactive); in the assay on CHO it was 1.81 µM (active); in [8], 103 µM (active); in assay [13] it was > 66 µM (inactive); at Beta Lactamase it was 15.6 µM (inactive).

In the case of `COc1ccc2nc3c(O)n(/N=C/c4ccc(OC)c(CN5CCCC5)c4)c(C)nc-3c2c1`, the IC50 in [18] was > 100 µM (inactive); on Prothrombin, 87.9 µM (active); in assay [19], 13 µM (active). Besides, the EC50 on Streptokinase A is 32.3 µM (active); in the assay “cells”, 0.336 µM (active); in assay [9] it was < 0.1 µM (active); in assay [10], > 60 µM (not active); in the assay with Streptococcus, > 150 µM (not active); in assay [20] it was 17.8 µM (active).

Turning to `CC(Oc1ccc(Br)cc1)C(=O)Nc1ccc(S(=O)(=O)N(C)C2CCN(C)CC2)cc1` (configuration not stated), the EC50 in the assay “cells” is 0.073 µM (active); in [9], < 0.1 µM (active); in assay [10] it was 8.64 µM (active).
